Values of other authors, collected in PMC3290704 (Journal of the American Chemical Society, 2012).

Experiments:
[1] = test system: TAZ2 from p300; conditions: NMR structure of complex
[2] = biological target: TAZ2; conditions: fluorescence titrations

Kd [2]	Substance	TAZ2 residues in direct hydrophobic contact with p53 [1]	p53 residues forming an α-helix upon binding [1]
–	p53(2–39): p53(2–39) peptide in NMR structure with TAZ2 from p300	Val1802, Leu1823, and Leu1826 of TAZ2 have direct hydrophobic contacts with p53	residues 17 ~ 24 of the p53 AD1 subdomain form an α-helix upon binding
10 to 20 nM	p53(13–61): p53(13–61), literature TAZ2 binder by fluorescence titration	–	–
